Source: patent US8580799B2 (priority 2008, dated 2013)

Assay: Measurement of logP values by HPLC on reversed phase columns (EEC directive 79/831 Annex V.A8)
Format: physicochemical
Conditions: reversed phase HPLC column; HCOOH (formic acid) method; read-out: log P(HCOOH)

SMILES: Cc1nsnc1/C(=N\OCc1cccc(N2C(=O)c3ccccc3C2=O)n1)c1ccccc1 [2-{6-[({[(Z)-(4-methyl-1,2,5-thiadiazol-3-yl)(phenyl)methylene]amino}-oxy)methyl]pyridin-2-yl}-1H-isoindole-1,3(2H)-dione]
- chromatographic logP: 3.99
